According to article PMC13198257, “An aerosolized dual-action autotaxin inhibitor-PPARγ agonist for the treatment of pulmonary fibrosis” (Cell Reports Medicine, 2026):

Tested on: lung gene expression
Test: RNA sequencing of lung tissue (BLM/EL244 vs BLM)
Assay type: in vivo, mouse
Details: BLM/EL244 vs BLM
Procedure: RNA quality was assessed using an Agilent TapeStation 4150 with the High Sensitivity […] ScreenTape (Agilent), according to the manufacturer’s protocols. For library preparation, the QuantSeq 3’mRNA-Seq Library Prep Kit (Lexogen) was used according to manufacturer’s instructions. Briefly, 500 ng of RNA from each sample was used for first-strand synthesis, followed by RNA template removal, and second-strand synthesis initiated by random primers. In-line barcodes were introduced at this step, and this was followed by magnetic bead-based purification. The resulting libraries were amplified for 15 cycles and re-purified, with quantity and quality assessed on a Qubit 4 Fluorometer with the Invitrogen Qubit dsDNA HS Assay and an Agilent Tapestation 4150 with the High Sensitivity D1000 assay kit, respectively. The quantified libraries were pooled equimolarly; 50ng of total library mix was used for Adapter Conversion PCR Amplification using the Universal Library Conversion Kit (App-A), Version: V1.0 (MGI Tech Co., Ltd.), according to the manufacturer’s instructions.
The quantity and quality of the purified adapter conversion PCR (AC-PCR) product were evaluated on a Qubit 4 Fluorometer with the Invitrogen Qubit dsDNA HS Assay and on an Agilent Tapestation 4150 with the High Sensitivity D1000 assay kit, respectively. This was followed by DNA denaturation, Single-Strand Circularisation, Enzymatic Digestion, Enzymatic Digestion Product Cleanup and Quality Control steps on 1 pmol of AC-PCR product, according to the Universal Library Conversion Kit (App-A) User Manual (Version: A3).
Finally, 60 fmol of ssCirDNA were used for DNB preparation and sequencing on a DNBSEQ-G400 platform at the BSRC Alexander Fleming Genomics Facility, using a G400 App-A FCS SE100 High-throughput Sequencing Set (MGI Tech Co., Ltd.), according to the manufacturer’s instructions.
Alignment of the FASTQ files was performed against the mouse genome build mm10 using a custom Bash script.[143] Read counting on the 3′ UTRs and differential expression analysis were conducted using the metaseqR2 bioconductor package.[144] Genes corresponding to the following biotypes were excluded: polymorphic_pseudogene, processed_transcript, pseudogene, IG_V_pseudogene, misc_RNA, IG_C_gene, IG_J_gene, IG_D_gene, IG_LV_gene, TR_V_gene, TR_V_pseudogene, TEC, and processed_pseudogene. Gene counts were normalized with DESEQ[145] through metaseqR2. Genes with more than 10 counts in at least 50% of the samples were kept for further processing. For differential expression analysis, the PANDORA algorithm[146] was used to estimate a meta p-value integrating the results from the DESEQ, DESEQ2,[147] edgeR,[148] limma,[149] NBPSeq,[150] and NOISeq[151] algorithms. All additional parameters were set to default values.
Pathway enrichment analysis was performed for the Gene Ontology Biological process (BP) and Molecular Function (MF) terms through GeneCodis 4.[152] The volcano plots, scatterplots, Venn diagrams, and dot plots were generated using the ggplot2 Bioconductor package.

[1] = lung tissue of BLM-treated mice

SMILES: O=C1NC(=O)C(Cc2ccc(OCCC3CCN(C(=O)OCc4cc(Cl)cc(Cl)c4)CC3)cc2)S1 (stereo not shown) [EL244, 3,5-dichlorobenzyl 4-(2-(4-((2,4-dioxothiazolidin-5-yl)methyl)phenoxy)ethyl)piperidine-1-carboxylate]
- Synm log2 nFC [1]: 0.84
- Synm nFC [1]: 1.79
- Tbc1d8 log2 nFC [1]: 1.01
- Tbc1d8 nFC [1]: 2.01
- Tbkbp1 log2 nFC [1]: 0.71
- Tbkbp1 nFC [1]: 1.64
- Tgfbr3 log2 nFC [1]: 0.83
- Tgfbr3 nFC [1]: 1.78
- Tmcc3 log2 nFC [1]: 0.74
- Tmcc3 nFC [1]: 1.67
- Tmem100 log2 nFC [1]: 0.82
- Tmem100 nFC [1]: 1.77
- Tns2 log2 nFC [1]: 0.77
- Tns2 nFC [1]: 1.70
- Tppp3 log2 nFC [1]: 0.77
- Tppp3 nFC [1]: 1.70
- Unc45b log2 nFC [1]: 0.77
- Unc45b nFC [1]: 1.70
- Vpreb3 log2 nFC [1]: 0.71
- Vpreb3 nFC [1]: 1.63
- Vwa3b log2 nFC [1]: 0.98
- Vwa3b nFC [1]: 1.97
- Zfp36 log2 nFC [1]: 0.94
- Zfp36 nFC [1]: 1.92
- Acss1 log2 nFC (lung tissue): 0.65
- Acss1 nFC (lung tissue): 1.56
- Actn1 log2 nFC (lung tissue): -0.60
- Actn1 nFC (lung tissue): 0.66
- Adam12 log2 nFC (lung tissue): -1.57
- Adam12 nFC (lung tissue): 0.34
- Adamts4 log2 nFC (lung tissue): -2.15
- Adamts4 nFC (lung tissue): 0.23
- Adamts12 log2 nFC (lung tissue): -1.47
- Adamts12 nFC (lung tissue): 0.36
- Adgre1 log2 nFC (lung tissue): -0.79
- Adgre1 nFC (lung tissue): 0.58
- Ahnak log2 nFC (lung tissue): 0.61
- Ahnak nFC (lung tissue): 1.52
- Akap12 log2 nFC (lung tissue): 0.65
- Akap12 nFC (lung tissue): 1.57
- Ankrd37 log2 nFC (lung tissue): -1.50
- Ankrd37 nFC (lung tissue): 0.35
- Anln log2 nFC (lung tissue): -2.01
- Anln nFC (lung tissue): 0.25
- Apoe log2 nFC (lung tissue): -0.84
- Apoe nFC (lung tissue): 0.56
- Arg1 log2 nFC (lung tissue): -2.32
- Arg1 nFC (lung tissue): 0.20
- Arhgef39 log2 nFC (lung tissue): -1.70
- Arhgef39 nFC (lung tissue): 0.31
- Aurka log2 nFC (lung tissue): -2.19
- Aurka nFC (lung tissue): 0.22
- Aurkb log2 nFC (lung tissue): -1.85
- Aurkb nFC (lung tissue): 0.28
- Bex3 log2 nFC (lung tissue): -0.75
- Bex3 nFC (lung tissue): 0.59
- Bhlhe40 log2 nFC (lung tissue): -0.85
- Bhlhe40 nFC (lung tissue): 0.56
- Birc5 log2 nFC (lung tissue): -2.03
- Birc5 nFC (lung tissue): 0.25
- Bmpr2 log2 nFC (lung tissue): 0.60
- Bmpr2 nFC (lung tissue): 1.52
- Brca2 log2 nFC (lung tissue): -1.64
- Brca2 nFC (lung tissue): 0.32
- Brinp1 log2 nFC (lung tissue): -1.85
- Brinp1 nFC (lung tissue): 0.28
- C1qa log2 nFC (lung tissue): -1.44
- C1qa nFC (lung tissue): 0.37
- C1qb log2 nFC (lung tissue): -1.51
- C1qb nFC (lung tissue): 0.35
- C1qc log2 nFC (lung tissue): -1.56
- C1qc nFC (lung tissue): 0.34
- C3ar1 log2 nFC (lung tissue): -1.58
- C3ar1 nFC (lung tissue): 0.33
- Capg log2 nFC (lung tissue): -0.82
- Capg nFC (lung tissue): 0.57
- Casp3 log2 nFC (lung tissue): -0.85
- Casp3 nFC (lung tissue): 0.56
- Ccdc80 log2 nFC (lung tissue): -1.64
- Ccdc80 nFC (lung tissue): 0.32
- Ccl2 log2 nFC (lung tissue): -1.43
- Ccl2 nFC (lung tissue): 0.37
- Ccl7 log2 nFC (lung tissue): -1.75
- Ccl7 nFC (lung tissue): 0.30
- Ccl8 log2 nFC (lung tissue): -1.54
- Ccl8 nFC (lung tissue): 0.34
- Ccl12 log2 nFC (lung tissue): -2.27
- Ccl12 nFC (lung tissue): 0.21
- Ccn4 log2 nFC (lung tissue): -2.20
- Ccn4 nFC (lung tissue): 0.22
- Ccna2 log2 nFC (lung tissue): -2.26
- Ccna2 nFC (lung tissue): 0.21
- Ccnb1 log2 nFC (lung tissue): -2.41
- Ccnb1 nFC (lung tissue): 0.19
- Ccnb2 log2 nFC (lung tissue): -1.68
- Ccnb2 nFC (lung tissue): 0.31
- Ccne1 log2 nFC (lung tissue): -2.04
- Ccne1 nFC (lung tissue): 0.24
- Ccnf log2 nFC (lung tissue): -2.02
- Ccnf nFC (lung tissue): 0.25
- Ccr5 log2 nFC (lung tissue): -1.76
- Ccr5 nFC (lung tissue): 0.30
- Cd63 log2 nFC (lung tissue): -0.76
- Cd63 nFC (lung tissue): 0.59
- Cd276 log2 nFC (lung tissue): -1.70
- Cd276 nFC (lung tissue): 0.31
- Cdc20 log2 nFC (lung tissue): -1.58
- Cdc20 nFC (lung tissue): 0.34
- Cdca3 log2 nFC (lung tissue): -1.83
- Cdca3 nFC (lung tissue): 0.28
- Cdca8 log2 nFC (lung tissue): -2.32
- Cdca8 nFC (lung tissue): 0.20
- Cdk1 log2 nFC (lung tissue): -1.99
- Cdk1 nFC (lung tissue): 0.25
- Cdk19 log2 nFC (lung tissue): -0.64
- Cdk19 nFC (lung tissue): 0.64
- Cdkn3 log2 nFC (lung tissue): -1.68
- Cdkn3 nFC (lung tissue): 0.31
- Cenpe log2 nFC (lung tissue): -1.70
- Cenpe nFC (lung tissue): 0.31
- Cenpf log2 nFC (lung tissue): -2.20
- Cenpf nFC (lung tissue): 0.22
- Cenph log2 nFC (lung tissue): -2.04
- Cenph nFC (lung tissue): 0.24
- Cenpk log2 nFC (lung tissue): -1.51
- Cenpk nFC (lung tissue): 0.35
- Cenpn log2 nFC (lung tissue): -1.74
- Cenpn nFC (lung tissue): 0.30
- Cenps log2 nFC (lung tissue): -1.80
- Cenps nFC (lung tissue): 0.29
- Cfp log2 nFC (lung tissue): -0.83
- Cfp nFC (lung tissue): 0.56
- Chl1 log2 nFC (lung tissue): -3.49
- Chl1 nFC (lung tissue): 0.09
- Chsy3 log2 nFC (lung tissue): -1.56
- Chsy3 nFC (lung tissue): 0.34
- Ckap2l log2 nFC (lung tissue): -2.06
- Ckap2l nFC (lung tissue): 0.24
- Ckap2 log2 nFC (lung tissue): -2.44
- Ckap2 nFC (lung tissue): 0.18
- Ckap4 log2 nFC (lung tissue): -0.63
- Ckap4 nFC (lung tissue): 0.65
- Ckb log2 nFC (lung tissue): -0.61
- Ckb nFC (lung tissue): 0.65
- Cks1b log2 nFC (lung tissue): -1.54
- Cks1b nFC (lung tissue): 0.34
- Clca3a1 log2 nFC (lung tissue): -2.06
- Clca3a1 nFC (lung tissue): 0.24
- Cldn4 log2 nFC (lung tissue): -1.99
- Cldn4 nFC (lung tissue): 0.25
- Clmp log2 nFC (lung tissue): -0.78
- Clmp nFC (lung tissue): 0.58
- Clspn log2 nFC (lung tissue): -1.79
- Clspn nFC (lung tissue): 0.29
- Clu log2 nFC (lung tissue): -0.81
- Clu nFC (lung tissue): 0.57
- Cmtm3 log2 nFC (lung tissue): -0.60
- Cmtm3 nFC (lung tissue): 0.66
- Col1a1 log2 nFC (lung tissue): -2.02
- Col1a1 nFC (lung tissue): 0.25
- Col3a1 log2 nFC (lung tissue): -1.54
- Col3a1 nFC (lung tissue): 0.34
- Col4a1 log2 nFC (lung tissue): -0.75
- Col4a1 nFC (lung tissue): 0.59
- Col4a2 log2 nFC (lung tissue): -0.64
- Col4a2 nFC (lung tissue): 0.64
- Col5a1 log2 nFC (lung tissue): -1.52
- Col5a1 nFC (lung tissue): 0.35
- Col5a2 log2 nFC (lung tissue): -1.48
- Col5a2 nFC (lung tissue): 0.36
- Col5a3 log2 nFC (lung tissue): -1.53
- Col5a3 nFC (lung tissue): 0.35
- Col6a2 log2 nFC (lung tissue): -0.67
- Col6a2 nFC (lung tissue): 0.63
- Col6a3 log2 nFC (lung tissue): -0.77
- Col6a3 nFC (lung tissue): 0.59
- Cped1 log2 nFC (lung tissue): 0.63
- Cped1 nFC (lung tissue): 1.55
- Cthrc1 log2 nFC (lung tissue): -2.00
- Cthrc1 nFC (lung tissue): 0.25
- Ctnnbip1 log2 nFC (lung tissue): -0.62
- Ctnnbip1 nFC (lung tissue): 0.65
- Ctsb log2 nFC (lung tissue): -0.75
- Ctsb nFC (lung tissue): 0.59
- Ctsh log2 nFC (lung tissue): -0.63
- Ctsh nFC (lung tissue): 0.64
- Cxcl9 log2 nFC (lung tissue): -1.62
- Cxcl9 nFC (lung tissue): 0.32
- Cxcl10 log2 nFC (lung tissue): -1.90
- Cxcl10 nFC (lung tissue): 0.27
- Cxcl12 log2 nFC (lung tissue): -0.67
- Cxcl12 nFC (lung tissue): 0.63
- Cxcl13 log2 nFC (lung tissue): -1.42
- Cxcl13 nFC (lung tissue): 0.37
- Cyth4 log2 nFC (lung tissue): -0.71
- Cyth4 nFC (lung tissue): 0.61
- Cytip log2 nFC (lung tissue): 0.63
- Cytip nFC (lung tissue): 1.54
- Ddr1 log2 nFC (lung tissue): -0.66
- Ddr1 nFC (lung tissue): 0.63
- Dnmt1 log2 nFC (lung tissue): -0.84
- Dnmt1 nFC (lung tissue): 0.56
- Dtl log2 nFC (lung tissue): -1.94
- Dtl nFC (lung tissue): 0.26
- Dtx4 log2 nFC (lung tissue): -0.70
- Dtx4 nFC (lung tissue): 0.61
- E2f8 log2 nFC (lung tissue): -1.57
- E2f8 nFC (lung tissue): 0.34
- Ect2 log2 nFC (lung tissue): -1.89
- Ect2 nFC (lung tissue): 0.27
- Efnb2 log2 nFC (lung tissue): 0.61
- Efnb2 nFC (lung tissue): 1.53
- Eln log2 nFC (lung tissue): -2.07
- Eln nFC (lung tissue): 0.24
- Emid1 log2 nFC (lung tissue): -0.78
- Emid1 nFC (lung tissue): 0.58
- Emilin1 log2 nFC (lung tissue): -0.84
- Emilin1 nFC (lung tissue): 0.56
- Emp1 log2 nFC (lung tissue): -0.70
- Emp1 nFC (lung tissue): 0.62
- Enc1 log2 nFC (lung tissue): -0.80
- Enc1 nFC (lung tissue): 0.57
- Epas1 log2 nFC (lung tissue): 0.67
- Epas1 nFC (lung tissue): 1.59
- Epb41 log2 nFC (lung tissue): 0.61
- Epb41 nFC (lung tissue): 1.52
- Espl1 log2 nFC (lung tissue): -1.71
- Espl1 nFC (lung tissue): 0.31
- Evi2a log2 nFC (lung tissue): -0.82
